{"source": "paper PMC7823449", "about": "(Antioxidants, 2020)", "key": {"[1]": {"assay": "Oxygen Radical Absorbance Capacity (ORAC) assay", "format": "biochemical", "conditions": "samples 100 μg/mL properly diluted, AAPH 100 mM, fluorescein 10 nM, 37 °C, pH 7.0; values only in Figure 7", "protocol": "The ORAC assay determined the fluorescence decrease of fluorescein (10 nM) after its oxidation in the presence of AAPH and the investigated samples (100 μg/mL) properly diluted, as previously reported [46, 47]. The assays were carried out at 37 °C, pH 7.0 recording fluorescence through a Wallac Victor 1420 Multilabel Counters fluorimeter (PerkinElmer, Waltham, MA, USA) (excitation λ = 540 nm, emission λ = 570 nm). Trolox (12.5 μM) and phosphate buffer were used as control standard and blank, respectively. The area under the quenching curve of fluorescein was used to calculate ORAC value of the investigated compounds using Origin®7 (OriginLab Corporation, Northampton, USA). ORAC Units, expressed as trolox micromole per microgram of sample (μmol/μg), were obtained according to Equation (2): ORAC value (μmol/μg) = K(S sample − S blank)/(S Trolox − S blank) (2) where K is the sample dilution factor, S the area under the fluorescence decay curve of sample, trolox or blank. Each experiment was performed in triplicate and data were expressed as mean ± SD"}, "[2]": {"target": "T1, bovine serum albumin (BSA) (Bos taurus, UniProt P02769)", "T1 construct": "purchased Sigma-Aldrich S.r.l; (Milan, Italy)", "T1 sequence (P02769 25-607)": "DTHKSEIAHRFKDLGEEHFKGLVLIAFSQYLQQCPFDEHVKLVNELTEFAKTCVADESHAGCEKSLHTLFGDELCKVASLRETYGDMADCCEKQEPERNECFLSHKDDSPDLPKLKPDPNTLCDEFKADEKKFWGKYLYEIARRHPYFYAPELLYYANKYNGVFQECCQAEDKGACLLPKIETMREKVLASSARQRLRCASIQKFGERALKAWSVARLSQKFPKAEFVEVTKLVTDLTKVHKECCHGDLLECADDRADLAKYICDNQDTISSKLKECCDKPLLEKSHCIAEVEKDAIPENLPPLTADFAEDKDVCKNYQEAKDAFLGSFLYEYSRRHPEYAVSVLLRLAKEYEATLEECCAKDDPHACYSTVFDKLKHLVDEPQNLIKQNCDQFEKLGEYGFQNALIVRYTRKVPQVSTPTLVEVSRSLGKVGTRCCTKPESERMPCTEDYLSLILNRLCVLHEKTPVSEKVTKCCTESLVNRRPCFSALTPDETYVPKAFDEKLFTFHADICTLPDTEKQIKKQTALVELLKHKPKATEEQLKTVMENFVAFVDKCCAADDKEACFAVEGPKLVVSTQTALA", "assay": "Anti-glycation activity, AGEs formation through Maillard reaction (BSA + D-fructose)", "format": "biochemical", "conditions": "samples 400 μg/mL, BSA 10 mg/mL + D-fructose 0.5 M, pH 7.4, 37 °C, 7 days; values only in Figure 8", "method": "Protein model bovine serum albumin (BSA) (10 mg/mL) incubated with D-fructose (0.5 M) in phosphate buffer 50 mM, pH 7.4 and NaN3 0.02% was used as positive control. BSA alone was the negative control while aminoguanidine (AMG) (400 μg/mL) was used as a reference. Final glycated BSA solutions (300 μL), alone and with samples (400 μg/mL), were incubated at 37 °C in 96-well microtiter closed with their silicon lids for 7 days. The inhibition of fluorescence was determined using a Wallac Victor 1420 Multilabel Counters fluorimeter (PerkinElmer, Waltham, MA, USA) (λexc 370 nm; λem 440 nm). Relative fluorescence units (RFU) were recorded and the percentage of AGEs formation inhibition was calculated as follows (Equation (3)): % of inhibition = {1 − (RFU sample/RFU Positive control)} × 100 (3)\nEach experiment was performed in triplicate and data were expressed as mean ± SD Statistical analysis of the results was performed using Student’s t-test (p < 0.05)."}, "[3]": {"assay": "Chemical stability (chemical hydrolysis) at different pH and temperature, HPLC of residual RSVTR", "format": "physicochemical", "conditions": "dark", "method": "The chemical hydrolysis of RSVTR was studied at pH 2.0 (0.2 N HCI), 6.8 and 7.2 (phosphate buffer solutions). All solutions containing the same amount of RSVTR (1.18 µM) were kept in the dark at a constant temperature of 37 °C, 22 °C, and 5 °C. At appropriate time intervals, chosen to obtain enough data to pinpoint the stability profile (0, 2, 4, 8, 24, 48, 72, 96, 168, 696 h at pH 7.2; 0, 2, 4, 8, 24, 48, 72, 96, 192, 528, 768 h at pH 6.8; 0, 2, 4, 8, 24, 48, 72, 96, 528 h at pH 2.0), samples were withdrawn and analyzed immediately by HPLC for the residual RSVTR.\nPseudo-first-order rate constants were determined from the slope of the linear portion of the graph obtained, plotting the logarithm of the residual amount of RSVTR against time. RSVTR half-life (t1/2) was calculated according to Equation (1): t1/2 = […] (1) where k is the pseudo-first-order rate constant.\nRSVTR was analyzed using an isocratic binary mobile phase consisting of 5% of acetonitrile and 95% of triethylamine 0.3% (v/v) in water (pH adjusted to 3.0 with trifluoroacetic acid). The flow rate was set at 1.0 mL/min and the column was maintained at 24 °C throughout the analysis. Chromatograms were acquired at 290 nm after analyzing RSVTR UV spectra in the range 200–400 nm and the retention time of RSVTR was approximately 5.40 min. The analytical method was validated according to ICH guidelines."}}}
{"smiles": "Cc1c(C)c2c(c(C)c1O)CCC(C)(C(=O)Oc1ccc(/C=C/c3cc(OC(=O)C4(C)CCc5c(C)c(O)c(C)c(C)c5O4)cc(OC(=O)C4(C)CCc5c(C)c(O)c(C)c(C)c5O4)c3)cc1)O2", "note": "(stereo not drawn) [RSVTR]", "values": [{"measurement": "Antioxidant activity (ORAC), result in words", "setting": "[1]", "value": "lower antioxidant capacity"}, {"measurement": "melting point", "value": "113 to 116", "unit": "°C"}, {"measurement": "Anti-glycation activity (inhibition of AGEs formation), result in words", "setting": "[2]", "value": "better anti-glycation agent than RSV"}, {"measurement": "half-life at 1.18 µM", "setting": "[3]; 0.2 N HCl solution, pH 2, pH 2.0 (0.2 N HCl), 5 °C", "value": 19.2, "unit": "days"}, {"measurement": "half-life at 1.18 µM", "setting": "[3]; 0.2 N HCl solution, pH 2, pH 2.0 (0.2 N HCl), 22 °C", "value": 8.25, "unit": "days"}, {"measurement": "half-life at 1.18 µM", "setting": "[3]; 0.2 N HCl solution, pH 2, pH 2.0 (0.2 N HCl), 37 °C", "value": 5.54, "unit": "days"}, {"measurement": "half-life at 1.18 µM", "setting": "[3]; phosphate buffer, pH 6.8, pH 6.8 phosphate buffer, 5 °C", "value": 48.1, "unit": "days"}, {"measurement": "half-life at 1.18 µM", "setting": "[3]; phosphate buffer, pH 6.8, pH 6.8 phosphate buffer, 22 °C", "value": 36.1, "unit": "days"}, {"measurement": "half-life at 1.18 µM", "setting": "[3]; phosphate buffer, pH 6.8, pH 6.8 phosphate buffer, 37 °C", "value": 28.9, "unit": "days"}, {"measurement": "half-life at 1.18 µM", "setting": "[3]; phosphate buffer, pH 7.2, pH 7.2 phosphate buffer, 5 °C", "value": 72.2, "unit": "days"}, {"measurement": "half-life at 1.18 µM", "setting": "[3]; phosphate buffer, pH 7.2, pH 7.2 phosphate buffer, 22 °C", "value": 28.9, "unit": "days"}, {"measurement": "half-life at 1.18 µM", "setting": "[3]; phosphate buffer, pH 7.2, pH 7.2 phosphate buffer, 37 °C", "value": 12.5, "unit": "days"}]}
